Square brackets hold non-standard residues; d marks the D form. Peptide text beside a SMILES is read from it. ξ: configuration not given here. Oic = O=C(O)[C@@H]1C[C@@H]2CCCC[C@@H]2N1; d2Nal = N[C@H](Cc1ccc2ccccc2c1)C(=O)O; Hyp = O=C(O)[C@@H]1C[C@@H](O)CN1; 2Thi = N[C@@H](Cc1cccs1)C(=O)O; Gly(N-cHex) = O=C(O)CNC1CCCCC1; ξαMeF = CC(N)(Cc1ccccc1)C(=O)O; Orn = NCCC[C@H](N)C(=O)O; βAla = NCCC(=O)O; Mpa = O=C(O)CCS

In one data set the target is T1, human kinin B1R (Homo sapiens, UniProt P46663).
T1 construct: expressed in transfected cells
T1 sequence (P46663 1-353): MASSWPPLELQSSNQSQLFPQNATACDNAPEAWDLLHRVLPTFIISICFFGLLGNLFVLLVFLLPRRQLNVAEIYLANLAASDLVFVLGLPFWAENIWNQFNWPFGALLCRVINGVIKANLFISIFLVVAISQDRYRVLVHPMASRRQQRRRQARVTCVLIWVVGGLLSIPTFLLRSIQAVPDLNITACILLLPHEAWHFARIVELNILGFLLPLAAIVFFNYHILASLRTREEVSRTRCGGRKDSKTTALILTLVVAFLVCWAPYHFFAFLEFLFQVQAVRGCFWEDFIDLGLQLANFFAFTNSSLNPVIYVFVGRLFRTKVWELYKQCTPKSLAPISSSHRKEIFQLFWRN
Description: Competition binding assay on HEK293 cells stably expressing human kinin B1R, radioligand [3H]Lys[Leu8]desArg9BK. Particulars: displacement of radioligand, read-out: hB1R IC50. As for the experimental part: (§1) Competition binding assays were carried out essentially as described previously. Briefly, HEK293 cells stably expressing either human kinin B1R or B2R were grown in 24-well plates and incubated with 4 nM [^3H]Lys[[…]]desArg^9BK (for B1R) or with 1 nM [^3H]BK/well (for B2R) in serum-free DMEM for 1-2 h in the absence or presence of increasing concentrations of competitors ([…]-10^-5 M for peptides; 10^-10-10^-4 g/mL for peptides-coupled NPs). Radioactivity of samples was measured by a β-scintillation counter (PerkinElmer, Woodbridge, ON, Canada). Binding affinities of compounds were expressed in terms of IC50 values-the concentrations of competing compounds (i.e., free peptides, TMC-peptides conjugates and peptides coupled to NPs) causing 50% displacement of specific binding of the radioligand. Data are means of 2-3 independent experiments.

For a further data set, the target named is T2, human kinin B2R (Homo sapiens, UniProt P30411).
T2 construct: expressed in transfected cells
T2 sequence (P30411 1-391): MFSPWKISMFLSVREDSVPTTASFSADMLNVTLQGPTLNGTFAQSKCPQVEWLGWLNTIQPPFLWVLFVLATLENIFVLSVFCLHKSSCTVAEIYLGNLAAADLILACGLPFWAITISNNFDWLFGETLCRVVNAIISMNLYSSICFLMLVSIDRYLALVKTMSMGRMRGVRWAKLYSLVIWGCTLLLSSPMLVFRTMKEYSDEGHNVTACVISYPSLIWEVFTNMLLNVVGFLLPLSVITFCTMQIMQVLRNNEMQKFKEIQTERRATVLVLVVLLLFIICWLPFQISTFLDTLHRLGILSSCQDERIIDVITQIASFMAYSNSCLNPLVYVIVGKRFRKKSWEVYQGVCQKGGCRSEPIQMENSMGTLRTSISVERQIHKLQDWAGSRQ
Description: Competition binding assay on HEK293 cells stably expressing human kinin B2R, radioligand [3H]BK. Particulars: displacement of [3H]BK, read-out: hB2R IC50. The method, then:
as §1

On the set-up of data set [1]: method as in PMID 30837797. Particulars: in rodents; cited from earlier work.

As a reminder, the IC50 is the midpoint of a concentration-inhibition curve. `N=C(N)NCCC[C@H](NC(=O)[C@H](Cc1cccs1)NC(=O)CN(C(=O)[C@H](CO)NC(=O)[C@H](Cc1cccs1)NC(=O)CNC(=O)[C@@H]1C[C@@H](O)CN1C(=O)[C@@H]1CCCN1C(=O)[C@@H](N)CCCNC(=N)N)C1CCCCC1)C(=O)O` [NG291, H-Arg-Pro-Hyp-Gly-Thi-Ser-^NChg-Thi-Arg-OH] (H-RP[Hyp]G[2Thi]S[Gly(N-cHex)][2Thi]R-OH): the IC50 at human kinin B1R is > 10000 nM; on human kinin B2R, 2 nM.
With “TRIOZAN™-MAB7053: TRIOZAN (trimethyl chitosan) conjugated with 7 equivalents of B2R agonist peptide MAB7053 (RPPGXSXXR; Residue 3 is Hyp (trans-4-hydroxy-L-Pro); residues 5 and 8 are Thi (alpha-(2-thienyl)-L-Ala); residue 7 is N-cyclohexyl-Gly; free C-terminal acid; N-terminal Mpa-betaAla spacer, thioether-linked via M)”, the half-inhibitory concentration (IC50) with human kinin B2R amounted to 10600 nM.
On to `CNCC(=O)N[C@@H](CCCCN)C(=O)N[C@@H](CCCNC(=N)N)C(=O)N1CCC[C@H]1C(=O)N1CCC[C@H]1C(=O)NCC(=O)N[C@@H](Cc1ccccc1)C(=O)N[C@@H](CO)C(=O)N1CCC[C@H]1C(=O)N[C@H](Cc1ccccc1)C(=O)O` [NG29, Sar-Lys-Arg-Pro-Pro-Gly-Phe-Ser-Pro-DPhe-OH], for which the IC50 at human kinin B1R was 0.5 nM; on human kinin B2R, > 10000 nM.
With `CC[C@H](C)[C@H](NC(=O)[C@@H](Cc1ccc2ccccc2c1)NC(=O)[C@H](CO)NC(=O)C(C)(Cc1ccccc1)NC(=O)CNC(=O)[C@@H]1CCCN1C(=O)[C@@H]1C[C@@H]2CCCC[C@@H]2N1C(=O)[C@H](CCCNC(=N)N)NC(=O)[C@H](CCCN)NC(=O)CCNC(=O)CCS)C(=O)O` (stereo partly drawn) [MAB7122, Mpa-βAla-Orn-Arg-Oic-Pro-Gly-(αMe)Phe-Ser-DβNal-Ile-OH] ([Mpa][βAla][Orn]R[Oic]PG[ξαMeF]S[d2Nal]I-OH), the IC50 at human kinin B1R was determined as 10 nM.
The same measure, in the same setting: the figure for `N=C(N)NCCC[C@H](NC(=O)[C@H](CCCCN)NC(=O)CCNC(=O)CCS)C(=O)N1CCC[C@H]1C(=O)N1CCC[C@H]1C(=O)NCC(=O)N[C@@H](Cc1ccccc1)C(=O)N[C@@H](CO)C(=O)N1CCC[C@H]1C(=O)N[C@H](Cc1ccccc1)C(=O)O` [MAB7108, Mpa-βAla-Lys-Arg-Pro-Pro-Gly-Phe-Ser-Pro-DPhe-OH] is 0.8 nM.
Regarding `N=C(N)NCCC[C@H](NC(=O)[C@H](Cc1cccs1)NC(=O)CN(C(=O)[C@H](CO)NC(=O)[C@H](Cc1cccs1)NC(=O)CNC(=O)[C@@H]1C[C@@H](O)CN1C(=O)[C@@H]1CCCN1C(=O)[C@H](CCCNC(=N)N)NC(=O)CCNC(=O)CCS)C1CCCCC1)C(=O)O` [MAB7053, Mpa-βAla-Arg-Pro-Hyp-Gly-Thi-Ser-^NChg-Thi-Arg-OH] ([Mpa][βAla]RP[Hyp]G[2Thi]S[Gly(N-cHex)][2Thi]R-OH), the concentration for half-maximal inhibition (IC50) on human kinin B2R was 1180 nM.
On to `CC[C@H](C)[C@H](NC(=O)[C@@H](Cc1ccc2ccccc2c1)NC(=O)[C@H](CO)NC(=O)C(C)(Cc1ccccc1)NC(=O)CNC(=O)[C@@H]1CCCN1C(=O)[C@@H]1C[C@@H]2CCCC[C@@H]2N1C(=O)[C@H](CCCNC(=N)N)NC(=O)[C@H](CCCN)NC(C)=O)C(=O)O` (stereo partly drawn) [R954, AcOrn-Arg-Oic-Pro-Gly-(αMe)Phe-Ser-DβNal-Ile-OH] (Ac-[Orn]R[Oic]PG[ξαMeF]S[d2Nal]I-OH), for which the concentration for half-maximal inhibition (IC50) is 2 nM at human kinin B1R and > 10000 nM at human kinin B2R.

B1: ANX-005: C1q function blocking humanized IgG4 mAb (Annexon Biosciences) (antibody, chains of the INN, looked up, V domains shown)
VH: QVQLVQSGAELKKPGASVKVSCKSSGYHFTSYWMHWVKQAPGQGLEWIGVIHPNSGSINYNEKFESRVTITVDKSTSTAYMELSSLRSEDTAVYYCAGERDSTEVLPMDYWGQGTTVTVSS
VL: DVQITQSPSSLSASLGERATINCRASKSINKYLAWYQQKPGKAPKLLIYSGSTLQSGIPARFSGSGSGTDFTLTISSLEPEDFAMYYCQQHNEYPLTFGQGTKLEIK
Consider B1, for which the “half-life (t½)” value in data set [1] was ~ 18 h.
